Results taken from ChEMBL document CHEMBL1255323, “Prevalence and susceptibility profile of Candida metapsilosis and Candida orthopsilosis: results from population-based surveillance of candidemia in Spain” (2008).
Values after ≈ are worked out from the molar mass of the structure shown. Numbered stars: 1 amine (or outer) side, 2 acyl side, 3 side chain; on linkers, the order of the positions; unused ones are H or OH. Bridge positions count the residues as written; N and C are the ends. Square brackets hold non-standard residues; d marks the D form. Peptide text beside a SMILES is read from it. * marks the point of attachment. hTyr(3S-OH,4S-OH,3'-OSO3H) = N[C@H](C(=O)O)[C@H](O)[C@@H](O)c1ccc(O)c(OS(=O)(=O)O)c1; pTerphenylCO(4''-OnC5H11) = CCCCCOc1ccc(-c2ccc(-c3ccc(C(=O)*)cc3)cc2)cc1; Orn(4R-OH,5R-OH) = O=C([C@H](C[C@@H](O)[C@@H](O)N[*:3])N[*:1])[*:2]; hTyr(3S-OH,4S-OH) = N[C@H](C(=O)O)[C@H](O)[C@@H](O)c1ccc(O)cc1; Pro(3S-OH,4S-Me) = C[C@H]1CN[C@H](C(=O)O)[C@H]1O; X1 = CCCCCOc1ccc(-c2cc(-c3ccc(C(=O)*)cc3)no2)cc1; Gln(3R-OH) = NC(=O)C[C@@H](O)[C@H](N)C(=O)O; Hyp = O=C(O)[C@@H]1C[C@@H](O)CN1

Legend:
Format in all cases: functional
Candida orthopsilosis = assay: Antifungal activity against Candida orthopsilosis by microdilution AFST-EUCAST method; conditions: Lodderomyces orthopsilosis
Candida parapsilosis = assay: Antifungal activity against Candida parapsilosis by microdilution AFST-EUCAST method; conditions: Lodderomyces parapsilosis
Candida metapsilosis = assay: Antifungal activity against Candida metapsilosis by microdilution AFST-EUCAST method; conditions: Lodderomyces metapsilosis

Compound	MIC (Candida orthopsilosis) [µg/mL]	MIC50 (Candida orthopsilosis) [µg/mL]	MIC (Candida parapsilosis) [µg/mL]	MIC50 (Candida parapsilosis) [µg/mL]	MIC (Candida metapsilosis) [µg/mL]	MIC50 (Candida metapsilosis) [µg/mL]
C[C@@H]1[C@H](O)[C@@H](C)/C=C/C=C/C=C/C=C/C=C/C=C/C=C/[C@H](O[C@@H]2O[C@H](C)[C@@H](O)[C@H](N)[C@@H]2O)C[C@@H]2O[C@](O)(C[C@@H](O)C[C@@H](O)[C@H](O)CC[C@@H](O)C[C@@H](O)CC(=O)O[C@H]1C)C[C@H](O)[C@H]2C(=O)O [AMPHOTERICIN B]	0.06 (≈ 0.0649 µM)	0.06 (≈ 0.0649 µM)	0.14 (≈ 0.152 µM)	0.12 (≈ 0.13 µM)	0.08 (≈ 0.0866 µM)	0.09 (≈ 0.0974 µM)
CCCCCOc1ccc(-c2ccc(-c3ccc(C(=O)N[C@H]4C[C@@H](O)[C@@H](O)NC(=O)[C@@H]5[C@@H](O)[C@@H](C)CN5C(=O)[C@H]([C@@H](C)O)NC(=O)[C@H]([C@H](O)[C@@H](O)c5ccc(O)cc5)NC(=O)[C@@H]5C[C@@H](O)CN5C(=O)[C@H]([C@@H](C)O)NC4=O)cc3)cc2)cc1 [ANIDULAFUNGIN] ({pTerphenylCO(4''-OnC5H11)}-[Orn(4R-OH,5R-OH)]T[Hyp][hTyr(3S-OH,4S-OH)]T[Pro(3S-OH,4S-Me)]; lactam 1-C)	0.38 (≈ 0.333 µM)	0.5 (≈ 0.438 µM)	0.88 (≈ 0.772 µM)	1 (≈ 0.877 µM)	0.17 (≈ 0.149 µM)	0.18 (≈ 0.158 µM)
CC[C@H](C)C[C@H](C)CCCCCCCCC(=O)N[C@H]1C[C@@H](O)[C@@H](NCCN)NC(=O)[C@@H]2[C@@H](O)CCN2C(=O)[C@H]([C@H](O)CCN)NC(=O)[C@H]([C@H](O)[C@@H](O)c2ccc(O)cc2)NC(=O)[C@@H]2C[C@@H](O)CN2C(=O)[C@H]([C@@H](C)O)NC1=O [CASPOFUNGIN]	0.16 (≈ 0.146 µM)	0.12 (≈ 0.11 µM)	0.4 (≈ 0.366 µM)	0.5 (≈ 0.457 µM)	0.22 (≈ 0.201 µM)	0.25 (≈ 0.229 µM)
OC(Cn1cncn1)(Cn1cncn1)c1ccc(F)cc1F [FLUCONAZOLE]	0.5 (≈ 1.63 µM)	0.5 (≈ 1.63 µM)	0.37 (≈ 1.21 µM)	0.5 (≈ 1.63 µM)	1.26 (≈ 4.11 µM)	1 (≈ 3.27 µM)
Nc1nc(=O)[nH]cc1F [FLUCYTOSINE]	0.12 (≈ 0.93 µM)	0.12 (≈ 0.93 µM)	0.15 (≈ 1.16 µM)	0.12 (≈ 0.93 µM)	0.14 (≈ 1.08 µM)	0.12 (≈ 0.93 µM)
CCC(C)n1ncn(-c2ccc(N3CCN(c4ccc(OCC5COC(Cn6cncn6)(c6ccc(Cl)cc6Cl)O5)cc4)CC3)cc2)c1=O (stereo not given) [ITRACONAZOLE]	0.04 (≈ 0.0567 µM)	0.03 (≈ 0.0425 µM)	0.02 (≈ 0.0283 µM)	0.03 (≈ 0.0425 µM)	0.04 (≈ 0.0567 µM)	0.04 (≈ 0.0567 µM)
CCCCCOc1ccc(-c2cc(-c3ccc(C(=O)N[C@H]4C[C@@H](O)[C@@H](O)NC(=O)[C@@H]5[C@@H](O)[C@@H](C)CN5C(=O)[C@H]([C@H](O)CC(N)=O)NC(=O)[C@H]([C@H](O)[C@@H](O)c5ccc(O)c(OS(=O)(=O)O)c5)NC(=O)[C@@H]5C[C@@H](O)CN5C(=O)[C@H]([C@@H](C)O)NC4=O)cc3)no2)cc1 [MICAFUNGIN] (X1-[Orn(4R-OH,5R-OH)]T[Hyp][hTyr(3S-OH,4S-OH,3'-OSO3H)][Gln(3R-OH)][Pro(3S-OH,4S-Me)]; lactam 1-C)	0.25 (≈ 0.197 µM)	0.25 (≈ 0.197 µM)	0.73 (≈ 0.575 µM)	1 (≈ 0.787 µM)	0.28 (≈ 0.22 µM)	0.25 (≈ 0.197 µM)
CC[C@@H]([C@H](C)O)n1ncn(-c2ccc(N3CCN(c4ccc(OC[C@@H]5CO[C@@](Cn6cncn6)(c6ccc(F)cc6F)C5)cc4)CC3)cc2)c1=O [POSACONAZOLE]	0.03 (≈ 0.0428 µM)	0.03 (≈ 0.0428 µM)	0.02 (≈ 0.0285 µM)	0.02 (≈ 0.0285 µM)	0.02 (≈ 0.0285 µM)	0.02 (≈ 0.0285 µM)
C[C@@H](c1nc(-c2ccc(C#N)cc2)cs1)[C@](O)(Cn1cncn1)c1ccc(F)cc1F [RAVUCONAZOLE]	0.02 (≈ 0.0457 µM)	0.02 (≈ 0.0457 µM)	0.01 (≈ 0.0229 µM)	0.02 (≈ 0.0457 µM)	0.02 (≈ 0.0457 µM)	0.02 (≈ 0.0457 µM)
C[C@@H](c1ncncc1F)[C@](O)(Cn1cncn1)c1ccc(F)cc1F [VORICONAZOLE]	0.03 (≈ 0.0859 µM)	0.03 (≈ 0.0859 µM)	0.02 (≈ 0.0573 µM)	0.02 (≈ 0.0573 µM)	0.03 (≈ 0.0859 µM)	0.03 (≈ 0.0859 µM)
